Converted amounts (≈) assume the structure as drawn.
Experiments:
Test in all cases: Antibacterial activity (MIC), agar plate dilution method
Type in all cases: cell-based
[1] = test system: H. influenza 9334; conditions: 37° C., 20 hours, blood agar seed culture
Description: (§1) Antibacterial activities of the compounds of formula (I) are shown in Table 1 in terms of minimum inhibitory concentration (MIC).
(§2) Minimum inhibitory concentration was determined by the agar plate dilution method. Test strains were subjected to seed culture using Sensitivity test broth (STB, Nissui Pharmaceutical) except that the strains belonging to the genus Streptococcus, Branhamella and Haemophilus were cultured on blood agar plate. A 5 μl portion of cell suspension of the test strains having about 10^6 CFU/ml was inoculated into Sensitivity disk agar (SDA, Nissui Pharmaceutical) supplemented with 5% horse blood and incubated at 37° C. for 20 hours. Then, MIC was measured.

[2] = test system: Sta. aureus MS15026; conditions: Staphylococcus aureus, 37° C., 20 hours
Description: as §1, §2

[3] = test system: S. pneumoniae Type 1; conditions: Streptococcus pneumoniae, TYPE1, 37° C., 20 hours, blood agar seed culture
Description: as §1, §2

[4] = test system: Sta. aureus MS15027; conditions: Staphylococcus aureus; 37° C., 20 hours; Sta. aureus MS15027; read-out: Antibacterial activity (MIC)
Description: as §1, §2

[5] = test system: Sta. aureus 209P JC-1; conditions: Staphylococcus aureus, 37° C., 20 hours
Description: as §1, §2

[6] = test system: Sta. aureus MS15009/pMS99; conditions: Staphylococcus aureus, MS15009/PMS99, 20 h, read-out: Antibacterial activity (MIC)
Description: as §1, §2

[7] = test system: E. coli NIHJ JC-2; conditions: Escherichia coli, NIHJJC2, 37° C., 20 hours
Description: as §1, §2

[8] = test system: B. catarrhalis W-0500; conditions: Moraxella catarrhalis, W0500; 37° C., 20 hours; blood agar seed culture; B. catarrhalis W-0500; read-out: Antibacterial activity (MIC)
Description: as §1, §2

[9] = test system: S. pneumoniae IP692; conditions: Streptococcus pneumoniae, 37° C., 20 hours, blood agar seed culture
Description: as §1, §2

[10] = test system: Sta. aureus M133; conditions: Staphylococcus aureus; 37° C., 20 hours; Sta. aureus M133; read-out: Antibacterial activity (MIC)
Description: as §1, §2

[11] = test system: Sta. aureus MS15009/pMS98; conditions: Staphylococcus aureus, MS15009/PMS98, 20 h, read-out: Antibacterial activity (MIC)
Description: as §1, §2

[12] = test system: B. catarrhalis W-0506; conditions: Moraxella catarrhalis, W0506; 37° C., 20 hours; blood agar seed culture; B. catarrhalis W-0506; read-out: Antibacterial activity (MIC)
Description: as §1, §2

[13] = test system: Ent. faecalis W-73; conditions: Enterococcus faecalis, W73, 37° C., 20 hours
Description: as §1, §2

[14] = test system: Sta. epidermidis ATCC 14990; conditions: Staphylococcus epidermidis, ATCC14990; 37° C., 20 hours; Sta. epidermidis ATCC 14990; read-out: Antibacterial activity (MIC)
Description: as §1, §2

[15] = test system: M. luteus ATCC 9341; conditions: Micrococcus luteus, ATCC9341, 37° C., 20 hours
Description: as §1, §2

[16] = test system: K. pneumoniae PC1602; conditions: Klebsiella pneumoniae, 37° C., 20 hours
Description: as §1, §2

[17] = test system: S. Pyogenes Cook; conditions: Streptococcus pyogenes, 37° C., 20 hours, blood agar seed culture
Description: as §1, §2

[18] = test system: Sta. aureus M126; conditions: Staphylococcus aureus, 37° C., 20 hours
Description: as §1, §2

Structure (SMILES)	MIC [1]	MIC [2]	MIC [3]	MIC [4]	MIC [5]	MIC [6]	MIC [7]	MIC [8]	MIC [9]	MIC [10]	MIC [11]	MIC [12]	MIC [13]	MIC [14]	MIC [15]	MIC [16]	MIC [17]	MIC [18]
CCC(=O)O[C@@H]1CC(=O)O[C@H](C)C/C=C/C=C/C(=O)[C@H](C)C[C@H](CC=O)[C@H](O[C@@H]2O[C@H](C)[C@@H](O[C@H]3C[C@@](C)(OC)[C@@H](OCc4ccccc4)[C@H](C)O3)[C@H](N(C)C)[C@H]2O)[C@H]1OC [Compound (44)]	6.25 µg/mL (≈ 7.27 µM)	> 100 µg/mL	0.2 µg/mL (≈ 0.233 µM)	1.56 µg/mL (≈ 1.81 µM)	0.2 µg/mL (≈ 0.233 µM)	> 100 µg/mL	> 100 µg/mL	1.56 µg/mL (≈ 1.81 µM)	0.2 µg/mL (≈ 0.233 µM)	1.56 µg/mL (≈ 1.81 µM)	0.78 µg/mL (≈ 0.907 µM)	1.56 µg/mL (≈ 1.81 µM)	1.56 µg/mL (≈ 1.81 µM)	3.13 µg/mL (≈ 3.64 µM)	0.1 µg/mL (≈ 0.116 µM)	> 100 µg/mL	0.2 µg/mL (≈ 0.233 µM)	> 100 µg/mL
CCC(=O)O[C@@H]1CC(=O)O[C@H](C)C/C=C/C=C/C(=O)[C@H](C)C[C@H](CC=O)[C@H](O[C@@H]2O[C@H](C)[C@@H](O[C@H]3C[C@@](C)(OC)[C@@H](OCC=C(C)C)[C@H](C)O3)[C@H](N(C)C)[C@H]2O)[C@H]1OC [Compound (40)]	12.5 µg/mL (≈ 14.9 µM)	> 100 µg/mL	0.39 µg/mL (≈ 0.465 µM)	1.56 µg/mL (≈ 1.86 µM)	0.78 µg/mL (≈ 0.931 µM)	> 100 µg/mL	> 100 µg/mL	1.56 µg/mL (≈ 1.86 µM)	0.39 µg/mL (≈ 0.465 µM)	1.56 µg/mL (≈ 1.86 µM)	0.78 µg/mL (≈ 0.931 µM)	1.56 µg/mL (≈ 1.86 µM)	3.13 µg/mL (≈ 3.73 µM)	3.13 µg/mL (≈ 3.73 µM)	0.1 µg/mL (≈ 0.119 µM)	> 100 µg/mL	0.2 µg/mL (≈ 0.239 µM)	> 100 µg/mL
CCC(=O)O[C@@H]1CC(=O)O[C@H](C)C/C=C/C=C/C(=O)[C@H](C)C[C@H](CC=O)[C@H](O[C@@H]2O[C@H](C)[C@@H](O[C@H]3C[C@@](C)(OC)[C@@H](OCCCC(C)C)[C@H](C)O3)[C@H](N(C)C)[C@H]2O)[C@H]1OC [Compound (43)]	12.5 µg/mL (≈ 14.6 µM)	> 100 µg/mL	0.2 µg/mL (≈ 0.234 µM)	1.56 µg/mL (≈ 1.83 µM)	0.39 µg/mL (≈ 0.457 µM)	> 100 µg/mL	> 100 µg/mL	1.56 µg/mL (≈ 1.83 µM)	0.2 µg/mL (≈ 0.234 µM)	1.56 µg/mL (≈ 1.83 µM)	0.78 µg/mL (≈ 0.913 µM)	1.56 µg/mL (≈ 1.83 µM)	3.13 µg/mL (≈ 3.66 µM)	1.56 µg/mL (≈ 1.83 µM)	0.05 µg/mL (≈ 0.0585 µM)	> 100 µg/mL	0.05 µg/mL (≈ 0.0585 µM)	> 100 µg/mL

From patent US5444174A, “16-membered macrolide derivative having sustained antibacterial activity in plasma, synthesis intermediate thereof and process for producing the same” (Meiji Seika Kaisha, Ltd., priority 1992, dated 1995)
